Reference: paper PMC9656482, “In Vitro and In Vivo Biological Activity of Ruthenium 1,10-Phenanthroline-5,6-dione Arene Complexes” (International Journal of Molecular Sciences, 2022)

How the values were obtained:
[1] = system: A2780 ovarian carcinoma cell line; experiment: MTS antiproliferative assay, A2780; type: cell-based, human
Description: Normal dermal human fibroblasts, colorectal carcinoma cell line HCT116 and ovarian carcinoma cell line A2780 were acquired from ATCC (Manassas, VA, USA). […] Fibroblasts and HCT116 cells were cultured in Dulbecco’s modified Eagle medium (DMEM, Thermo Fisher Scientific) and A2780 cell line was cultured on Roswell Park Memorial institute 1640 (RPMI-1640, Thermo Fisher Scientific). Both media were supplemented with 10% (v/v) fetal bovine serum (FBS, Thermo Fisher Scientific) and a mixture of 100 U/mL penicillin and 100 mg/mL streptomycin. The supplemented media are referred to from this point on as DMEM or RPMI for simplicity. […] All experiments underwent at 37 °C, 5% (v/v) CO2 and 99% (v/v) humidity in the dark.
Cells were seeded in a 96-well plate in a density of 7500 cells/well, and after 24 h was submitted to a concentration range between 0.1–50 µM of complexes JHOR10 and JHOR11. DMSO with a 0.1% (v/v) concentration was used as vector control and cisplatin was used as positive control in all replicates. After 48 h incubation, cellular viability was inferred with the Cell Titer 96® Aqueous One solution cell proliferation assay (Promega, Madison, WI, USA) according to the manufacturer’s instructions and procedures previously described [18, 40]. The absorbance of the produced Formazan was quantified with a Tecan microplate reader, Infinite M200 (Tecan, Mannedorf, Switzerland) and the analysis of the dose–response curves to determine the relative IC50 was performed with GraphPad Prism 8.2.1 software (GraphPad Software, La Jolla, CA, USA).

[2] = system: doxorubicin-resistant HCT116 (HCT116-Dox); details: read-out: Relative IC50, HCT116-Dox; 48 h incubation, MTS
Description: (§1) The cytotoxic potential of the complexes was evaluated by assessing their viability using the 3-(4,5-dimethylthiazol-2-yl)-5-(3-carboxymethoxyphenyl)-2-(4-sulfophenyl)-2H tetrazolium, inner salt (MTS) colorimetric assay in three tumor cell lines—ovarian carcinoma, A2780, colorectal carcinoma, HCT116, and colorectal carcinoma resistant to doxorubicin, HCT116-Dox and in normal human primary dermal fibroblasts (Figure 1 and Figure S7).
(§2) Normal dermal human fibroblasts, colorectal carcinoma cell line HCT116 and ovarian carcinoma cell line A2780 were acquired from ATCC (Manassas, VA, USA). HCT116 cell lines resistant to doxorubicin (HCT116-Dox) were derived from the HCT116 cell line, as previously described. Fibroblasts and HCT116 cells were cultured in Dulbecco’s modified Eagle medium (DMEM, Thermo Fisher Scientific) and A2780 cell line was cultured on Roswell Park Memorial institute 1640 (RPMI-1640, Thermo Fisher Scientific). Both media were supplemented with 10% (v/v) fetal bovine serum (FBS, Thermo Fisher Scientific) and a mixture of 100 U/mL penicillin and […] streptomycin. The supplemented media are referred to from this point on as DMEM or RPMI for simplicity.

[3] = system: normal human dermal fibroblasts; details: read-out: Relative IC50, Fibroblasts; 48 h incubation, MTS
Description: as §1, §2

[4] = Stability in DMSO-d6-D2O solution by 1H NMR; type: physicochemical; details: DMSO-d6-D2O 3:7 (v/v), 110 mM chloride, 48 h
Description: To evaluate the stability of complexes in a cell culture medium, powdered complexes were first solubilized in DMSO and then immediately in DMEM, in order to guarantee that no more than 0.1% (v/v) DMSO was present in the medium. […] In addition, the stability of the complexes in solution was investigated by ^1H NMR spectroscopy. The ruthenium complexes were dissolved in DMSO-d6-D2O, in a 3:7 ratio (v/v) with a 110 mM chloride concentration, and the ^1H NMR spectra was recorded immediately and after 48 h. […] This observation is in agreement with the M–Cl aquation processes described for several metallic compounds, such as cisplatin [23]. After 48 h, the ^1H NMR spectrum of JHOR10 was unchanged.
The stability of complexes was evaluated in DMEM (Dulbecco’s modified Eagle’s medium). Powdered complexes JHOR10 and JHOR11 were solubilized in DMSO and then immediately diluted in DMEM without phenol red (Thermo Fisher Scientific, Waltham, MA, USA) to a final concentration of 100 µM, assuring that the final concentration of DMSO was not higher than 0.1% (v/v). The UV-visible spectrum was measured after an incubation at 37 °C for 24 or 48 h (DMEM) in a wavelength range between 260 and 800 nm, using a quartz cuvette with 1 cm path length. A total of 2 mg of each compound was dissolved in DMSOd6-D2O 3:7 (v/v) 110 mM chloride concentration (NaCl), and the ^1H NMR were recorded at 0 h and 48 h on a Bruker Avance III 400 MHz.

A2780 cells [5] = experiment: Mitochondrial membrane potential (JC-1); type: cell-based, human; details: A2780, 48 h, IC50 of JHOR11, relative to vehicle control
Excerpt: This dye accumulates in the mitochondria of cells, presenting red fluorescence, characteristic of the aggregated form (JC-1 aggregated), in healthy cells, and green fluorescence, characteristic of monomer form (JC-1 monomer), when the mitochondrial membrane is compromised.
The mitochondrial potential was quantified using the JC-1 mitochondrial membrane potential assay kit (Abnova, Taipé, Taiwan) according to manufacturer’s instructions and as previously described. Briefly, 2 × 10^5 A2780 cells were seeded on each well of a 6-well plate and incubated for 48 h with IC50 JHOR11, 0.1% (v/v) DMSO or 3.5 µM cisplatin. Cells with red (JC-1 aggregated) and green (JC-1 monomer) fluorescence were quantified with an Attune acoustic focusing flow cytometer and respective software (Thermo Fisher Scientific), and fluorescence ratios normalized to control samples incubated with DMSO.

A2780 cells [6] = experiment: Production of reactive oxygen species (H2DCF-DA); type: cell-based, human; details: A2780, 48 h, IC50 of JHOR11
Description: Since the cytotoxicity of Ru(II) complexes is commonly accompanied by the induction of reactive oxygen species (ROS), the ROS concentration was quantified in A2780 cells exposed for 48 h to IC50 concentration of JHOR11, using DMSO 0.1% (v/v) as a vehicle control, and 3.5 µM cisplatin and 25 µM hydrogen peroxide (H2O2) as positive controls. The incubation with the dye 2′,7′-dichlorodihydrofluorescein diacetate (H2DCF-DA) that, in the presence of peroxides, emits green fluorescence after oxidation to 2′,7′-dichlorofluorescein (DCF), followed by fluorescence quantification by flow cytometry, allowed us to infer the induction of ROS.
The production of ROS was evaluated using the dye 2′,7′-dichlorodihydrofluorescein diacetate (H2DCF-DA, ThermoFisher Scientific) according to previously described procedures. […] The fluorescence was quantified in an Attune acoustic focusing cytometer and respective software (Thermo Fisher Scientific) and normalized to the fluorescence of vector control sample.

A2780 cells [7] = experiment: Cell cycle analysis (PI staining); type: cell-based, human; details: A2780 synchronized with thymidine; IC50 of JHOR11 or 0.1 µM doxorubicin; 5-32 h, relative to DMSO
Description: To understand if the complex also presents a cytostatic effect, the cell cycle of A2780 cells was analyzed by DNA staining with PI, after double synchronization with thymidine at the S phase.
The cell cycle analysis was performed by DNA staining with PI according to procedures previously described with few modifications. A2780 cells were seeded in 6-well plates in a cell density of 4 × 10^5 cells/well and the cell cycle was synchronized in the S-phase by double blocking with 2 mM thymidine. […] After 5 h, 9 h, 24 h or 32 h, cells were detached, fixed with 80% (v/v) ethanol, incubated with 50 mg/mL RNase A (NZYtech, Lisbon, Portugal) and stained with […] PI (Thermo Fisher Scientific). The fluorescence of each sample was analyzed in an Attune acoustic focusing cytometer and respective software (Thermo Fisher Scientific).

Compound: Cc1ccc(C(C)C)cc1.F[P-](F)(F)(F)(F)F.O=C1C(=O)c2cccnc2-c2ncccc21.[Cl][Ru+] [JHOR11]
- IC50 ([1]; 48 h incubation, MTS, read-out: Relative IC50, A2780): 1.2 ± 0.1 µM
- selective index in A2780 ([1]; relative to fibroblasts): 37.4
- IC50 [2]: 6.8 ± 0.3 µM
- IC50 [3]: 44.5 ± 2.2 µM
- stability in solution by 1H NMR after 48 h [4]: the majority of the complex remained intact
- JC-1 monomer/aggregate fluorescence ratio (A2780 cells [5]): decrease in the monomer/aggregate fluorescence ratio (but with no statistical significance)
- increase in intracellular ROS relative to vector control (A2780 cells [6]): 1.72 ± 0.4 times
- cell cycle effect (A2780 cells [7]): slight increase in cells in G2/M phase
